According to paper PMC4310350 (Drug Design, Development and Therapy, 2015):
Entries after “also recorded” stand apart in the source; their conditions may differ. Like-named read-outs stand apart in the source and are kept apart here.

Assays:
OATP1B3 = target: T1, OATP1B3 (Homo sapiens, UniProt Q9NPD5); test: Uptake in HEK293 cells overexpressing OATP1B3; type: in vitro ADME; conditions: OATP1B3-mediated uptake
T1 sequence (Q9NPD5 1-702): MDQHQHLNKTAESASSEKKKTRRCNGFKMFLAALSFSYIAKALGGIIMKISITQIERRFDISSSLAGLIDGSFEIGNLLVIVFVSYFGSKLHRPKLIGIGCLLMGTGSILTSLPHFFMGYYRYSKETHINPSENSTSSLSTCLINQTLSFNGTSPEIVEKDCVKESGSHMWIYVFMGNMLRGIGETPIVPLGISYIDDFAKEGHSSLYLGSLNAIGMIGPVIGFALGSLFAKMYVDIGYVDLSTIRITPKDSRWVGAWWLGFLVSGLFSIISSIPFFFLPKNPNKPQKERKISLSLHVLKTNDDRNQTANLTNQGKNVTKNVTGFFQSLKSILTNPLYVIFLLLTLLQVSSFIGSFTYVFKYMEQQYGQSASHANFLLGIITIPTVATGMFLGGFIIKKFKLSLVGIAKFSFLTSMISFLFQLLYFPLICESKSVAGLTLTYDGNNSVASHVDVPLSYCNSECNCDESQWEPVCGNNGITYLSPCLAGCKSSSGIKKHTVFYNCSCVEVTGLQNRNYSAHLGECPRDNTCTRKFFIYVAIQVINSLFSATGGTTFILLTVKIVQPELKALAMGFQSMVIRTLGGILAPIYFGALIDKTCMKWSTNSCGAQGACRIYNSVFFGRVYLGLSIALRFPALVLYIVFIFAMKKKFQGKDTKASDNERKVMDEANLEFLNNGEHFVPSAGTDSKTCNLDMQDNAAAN

OCT1 = target: T2, OCT1 (Homo sapiens, UniProt O15245); test: Uptake in HEK293 cells overexpressing OCT1; type: in vitro ADME; conditions: OCT1, influx
T2 sequence (O15245 1-554): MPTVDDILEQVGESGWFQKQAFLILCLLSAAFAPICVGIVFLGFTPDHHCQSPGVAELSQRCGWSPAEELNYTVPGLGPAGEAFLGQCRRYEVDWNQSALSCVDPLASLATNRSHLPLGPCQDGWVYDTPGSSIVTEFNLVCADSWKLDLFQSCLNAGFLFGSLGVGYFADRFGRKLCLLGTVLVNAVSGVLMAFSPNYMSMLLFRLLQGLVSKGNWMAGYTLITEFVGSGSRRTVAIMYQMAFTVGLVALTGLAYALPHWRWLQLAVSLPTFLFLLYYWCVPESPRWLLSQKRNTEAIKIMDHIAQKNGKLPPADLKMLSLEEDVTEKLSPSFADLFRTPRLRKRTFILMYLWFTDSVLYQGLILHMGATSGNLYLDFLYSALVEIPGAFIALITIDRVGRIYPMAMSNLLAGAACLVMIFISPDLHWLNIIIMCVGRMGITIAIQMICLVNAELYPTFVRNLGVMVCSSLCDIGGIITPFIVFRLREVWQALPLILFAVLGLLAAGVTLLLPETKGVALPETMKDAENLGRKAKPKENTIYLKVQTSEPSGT

OCT2 [1] = target: T3, OCT2 (Homo sapiens, UniProt O15244); test: Uptake in HEK293 cells overexpressing OCT2; type: in vitro ADME; conditions: OCT2, influx
T3 sequence (O15244 1-555): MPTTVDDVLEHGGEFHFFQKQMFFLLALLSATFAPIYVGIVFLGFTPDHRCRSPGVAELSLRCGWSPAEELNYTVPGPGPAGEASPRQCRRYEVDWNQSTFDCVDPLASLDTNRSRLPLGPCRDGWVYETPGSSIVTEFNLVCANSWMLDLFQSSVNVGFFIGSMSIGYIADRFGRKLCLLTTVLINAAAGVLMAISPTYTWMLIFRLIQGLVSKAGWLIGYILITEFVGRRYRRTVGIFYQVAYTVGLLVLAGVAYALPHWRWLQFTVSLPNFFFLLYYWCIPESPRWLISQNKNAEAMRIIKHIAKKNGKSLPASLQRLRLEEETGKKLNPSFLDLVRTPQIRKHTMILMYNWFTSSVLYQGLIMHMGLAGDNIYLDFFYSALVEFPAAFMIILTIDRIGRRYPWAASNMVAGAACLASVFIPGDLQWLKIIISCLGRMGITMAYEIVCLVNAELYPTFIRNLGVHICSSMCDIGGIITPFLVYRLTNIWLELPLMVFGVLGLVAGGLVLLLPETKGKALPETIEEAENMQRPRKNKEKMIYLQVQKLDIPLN

P-gp = P-gp (Homo sapiens, UniProt P08183); test: A-to-B and B-to-A transport in LLC-PK1 cells overexpressing P-gp; type: in vitro ADME; conditions: P-gp (MDR1), efflux
OCT2 [2] = target: T3, OCT2; test: Inhibitory effect of catalposide on OCT2 transport activity; type: in vitro ADME; conditions: probe 0.1 μM [3H]MPP+, catalposide 0–100 μM
BCRP = target: T4, BCRP (Homo sapiens, UniProt Q9UNQ0); test: Inhibitory effect of catalposide on BCRP transport activity; type: in vitro ADME; conditions: probe 0.1 μM [3H]ES, catalposide 1–100 μM
T4 sequence (Q9UNQ0 1-655): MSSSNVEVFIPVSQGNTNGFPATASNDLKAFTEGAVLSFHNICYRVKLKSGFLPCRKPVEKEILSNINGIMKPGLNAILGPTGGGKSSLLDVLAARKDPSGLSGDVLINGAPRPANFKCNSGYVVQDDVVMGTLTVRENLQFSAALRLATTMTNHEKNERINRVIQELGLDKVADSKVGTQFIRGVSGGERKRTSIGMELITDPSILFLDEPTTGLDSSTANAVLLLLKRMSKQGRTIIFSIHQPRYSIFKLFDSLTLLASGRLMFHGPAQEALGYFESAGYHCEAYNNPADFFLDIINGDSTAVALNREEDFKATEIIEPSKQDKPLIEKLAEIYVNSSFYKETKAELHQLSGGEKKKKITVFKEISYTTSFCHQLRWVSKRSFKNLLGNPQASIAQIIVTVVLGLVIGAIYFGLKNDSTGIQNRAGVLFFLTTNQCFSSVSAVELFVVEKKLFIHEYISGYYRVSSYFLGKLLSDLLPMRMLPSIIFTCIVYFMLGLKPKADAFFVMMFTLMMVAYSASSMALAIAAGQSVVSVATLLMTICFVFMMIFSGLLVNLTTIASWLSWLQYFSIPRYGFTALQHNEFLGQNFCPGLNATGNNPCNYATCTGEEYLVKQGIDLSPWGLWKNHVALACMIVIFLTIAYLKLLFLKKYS

[3] = rats, cited from earlier work
[4] = 3-hour incubation in rat plasma; cited from earlier work
[5] = 3-hour incubation in human plasma; cited from earlier work

P-gp, sequence (P08183 whole entry): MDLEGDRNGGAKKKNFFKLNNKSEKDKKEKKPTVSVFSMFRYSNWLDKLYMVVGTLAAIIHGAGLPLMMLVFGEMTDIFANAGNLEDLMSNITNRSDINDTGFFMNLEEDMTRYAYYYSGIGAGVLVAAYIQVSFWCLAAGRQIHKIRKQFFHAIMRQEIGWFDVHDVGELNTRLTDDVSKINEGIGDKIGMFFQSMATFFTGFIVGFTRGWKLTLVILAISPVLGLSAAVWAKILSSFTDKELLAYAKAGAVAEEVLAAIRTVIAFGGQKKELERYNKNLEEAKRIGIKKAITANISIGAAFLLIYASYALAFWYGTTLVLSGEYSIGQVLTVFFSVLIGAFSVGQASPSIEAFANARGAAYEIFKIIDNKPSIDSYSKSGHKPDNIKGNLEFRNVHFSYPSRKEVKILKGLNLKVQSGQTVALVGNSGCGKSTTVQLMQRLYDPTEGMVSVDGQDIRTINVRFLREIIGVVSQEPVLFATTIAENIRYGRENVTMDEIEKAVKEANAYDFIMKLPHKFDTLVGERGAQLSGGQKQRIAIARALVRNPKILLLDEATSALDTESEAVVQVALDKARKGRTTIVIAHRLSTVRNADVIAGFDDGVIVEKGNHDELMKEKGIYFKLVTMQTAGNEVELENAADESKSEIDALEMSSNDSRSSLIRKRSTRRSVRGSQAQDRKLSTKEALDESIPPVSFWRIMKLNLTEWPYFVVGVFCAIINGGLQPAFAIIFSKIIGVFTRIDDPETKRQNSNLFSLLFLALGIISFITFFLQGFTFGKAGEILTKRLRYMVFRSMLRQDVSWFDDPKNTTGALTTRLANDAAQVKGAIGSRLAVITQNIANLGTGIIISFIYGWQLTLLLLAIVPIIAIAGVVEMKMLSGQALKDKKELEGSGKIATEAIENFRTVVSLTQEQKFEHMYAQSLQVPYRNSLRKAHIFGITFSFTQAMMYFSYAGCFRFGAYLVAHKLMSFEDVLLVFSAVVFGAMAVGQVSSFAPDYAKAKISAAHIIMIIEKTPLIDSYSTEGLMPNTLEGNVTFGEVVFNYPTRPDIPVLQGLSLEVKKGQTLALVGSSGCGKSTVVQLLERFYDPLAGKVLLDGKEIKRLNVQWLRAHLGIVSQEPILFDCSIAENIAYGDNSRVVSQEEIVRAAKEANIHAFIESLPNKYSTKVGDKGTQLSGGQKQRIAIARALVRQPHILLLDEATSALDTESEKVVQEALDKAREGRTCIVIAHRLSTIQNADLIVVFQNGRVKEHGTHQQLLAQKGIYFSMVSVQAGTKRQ

O=C(O[C@H]1[C@@H]2C=CO[C@@H](O[C@@H]3O[C@H](CO)[C@@H](O)[C@H](O)[C@H]3O)[C@@H]2[C@@]2(CO)O[C@@H]12)c1ccc(O)cc1 [catalposide]
Hill coefficient n (OATP1B3): ~1
Substrate (OCT1): not involved
Substrate (OCT2 [1]): not involved
Substrate (P-gp): not involved; also recorded: not a substrate
Inhibitor (OCT2 [2]): did not significantly inhibit
Inhibitor (BCRP): did not significantly inhibit
Recovery in the urine (unchanged form) ([3]; intravenous 10 mg/kg, % of dose): 9.9%
Distribution volume ([3]; intravenous): 2657.2 ± 1396.9 mL/kg
Nonrenal clearance ([3]; intravenous): 88.2 mL/min/kg
Renal clearance ([3]; intravenous): 8.47 mL/min/kg
Systemic clearance ([3]; intravenous): 96.7 ± 44.2 mL/min/kg
Terminal half-life ([3]; intravenous): 19.3 ± 9.5 min
Stability [4]: remained stable
Stability [5]: remained stable
